In article PMC11802874, “The hypolipidemic effect of MI-883, the combined CAR agonist/ PXR antagonist, in diet-induced hypercholesterolemia model” (Nature Communications, 2025):

Assay: Pharmacokinetic study after single dose in C57BL/6N mice
Type: in vivo, mouse
Protocol: Pharmacokinetic study of MI-883 in C57BL/6N mice (9–10 weeks old, body weight 20.8 to 24.5 g and average body weight across all groups 22.7 g, SD = 1.1 g) were performed following peroral (p.o.) and intraperitoneal (i.p.) administrations. […] There was also a control group of 4 animals per route. The levels of the parent compound MI-883 were determined by LC-MS/MS in the blood plasma, brain, kidney, liver, muscle (Leg triceps), bile, small intestine, colon, and adipose tissues over time after a single dose of 10 mg/kg. Mice were injected i.p. with 2,2,2-tribromoethanol at a dose of 150 mg/kg prior to drawing the blood. Blood collection was performed from the orbital sinus in BD microtainers tubes containing K2EDTA. Animals were sacrificed by cervical dislocation after the blood samples collection. After this, samples of brain, kidney, liver, muscle (Leg triceps), small intestine, colon, and adipose tissue were collected. Bile samples were taken from the gallbladder of mice. Urine and feces samples were collected using metabolic cages over the course of 1440 min (24 h) after compound administration. All samples were immediately processed, flash-frozen, and stored at –70 °C until subsequent analysis. Detection of the presence of potential metabolites (2-chloro-5-((4-(2-(4-chlorophenyl)-7-fluoroimidazo[1,2-a]pyridin-3-yl)-1H-1,2,3-triazol-1-yl)methyl)-N-methylbenzamide or 2-(4-chlorophenyl)-7-fluoro-3-(1H-1,2,3-triazol-4-yl)imidazo[1,2-a]pyridine) in plasma and tissues was performed. MI-883 was applied in 5%DMSO – 5%PEG300 – 90%corn oil formulation with a final concentration of the compound, 2 mg/ml. Animal treatment and sample preparation were conducted by the Animal Laboratory personnel at Enamine/Bienta.
Plasma samples (50 μl) were mixed with 200 μl of IS400 solution. After mixing by pipetting and centrifuging for 4 min at 6000 rpm, 2 μl of each supernatant was injected into the LC-MS/MS system. Solution of compound IS-19851 (400 ng/ml in acetonitrile-methanol mixture 1:1, v/v) was used as internal standard (IS400) for quantification of MI-883 in blood plasma, liver, kidney, muscle (Leg triceps), small intestine, and colon samples. Liver, kidney, muscle (Leg triceps), colon, and small intestine samples (weight 100 mg ±1 mg) were disintegrated in 500 μl of IS400 using zirconium oxide beads (120 mg ± 5 mg) in The Bullet Blender® homogenizer for 1–3 min at speed 8–12. After this, the samples were centrifuged for 3 min at 14,000 rpm, and 1 μl of each supernatant was injected into the LC-MS/MS system.
Brain and adipose tissue samples (weight 100 mg ± 1 mg) were dispersed in 500 μl of IS400(80) using zirconium oxide beads (120 mg ± 5 mg) in The Bullet Blender® homogenizer for 30 s at speed 8. After this, the samples were centrifuged for 4 min at 14,000 rpm, and 1 μl of each supernatant was injected into the LC-MS/MS system. Solution of compound IS-19851 (400 ng/ml in water-acetonitrile-methanol mixture, 2:4:4, v/v/v) was used as internal standard (IS400(80)) for quantification of MI-883 in the brain, adipose tissue, urine, and bile samples. Urine (cumulative) and bile samples were mixed with IS400(80) solution (1:20, v/v). After mixing by pipetting and centrifuging for 4 min at 6000 rpm, 0.5 μl of each supernatant was injected into the LC-MS/MS system. Cumulative feces samples (114 mg–249 mg) were transferred to BMT-20-S tubes with 4 stainless steel balls, mixed with 20 volumes of IS400(80) solution, and dispersed using ULTRA-TURRAX Tube Drive for 1 min at 3000 rpm within the 30 min thrice. After dispersing and centrifuging for 2 min at 14,000 rpm, 0.5 μl of each supernatant was injected into the LC-MS/MS system.
The concentration of MI-883 in plasma and tissues was determined using a high-performance liquid chromatography/tandem mass spectrometry (HPLC-MS/MS) method. […]

[1] = male, C57BL/6N, mouse, po, Liver, 10 mg/kg
[2] = male, C57BL/6N, mouse, po, Plasma, 10 mg/kg

NC(=O)c1cc(Cn2cc(-c3c(-c4ccc(Cl)cc4)nc4cc(F)ccn34)nn2)ccc1Cl [MI-883, 2-chloro-5-((4-(2-(4-chlorophenyl)-7-fluoroimidazo[1,2-a]pyridin-3-yl)-1H-1,2,3-triazol-1-yl)methyl)benzamide]
Tmax [1]: 30 min
half-life [1]: 211 min
Cmax [2]: 9290 ng/mL
Tmax [2]: 30 min
half-life [2]: 170 min
Tmax (male, mouse, ip, Plasma, 10 mg/kg, C57BL/6N mice): 30 min
PK of MI-883: MI-883 p.o. adipose tis. (p.o., time 10): 211
PK of MI-883: MI-883 p.o. adipose tis. (p.o., time 120): 5811
PK of MI-883: MI-883 p.o. adipose tis. (p.o., time 240): 980
PK of MI-883: MI-883 p.o. adipose tis. (p.o., time 480): 1023
PK of MI-883: MI-883 p.o. adipose tis. (p.o., time 720): 1016
PK of MI-883: MI-883 p.o. adipose tis. (p.o., time 1440): 8
PK of MI-883: MI-883 p.o. bile (p.o., time 10): 560
PK of MI-883: MI-883 p.o. bile (p.o., time 120): 5663
PK of MI-883: MI-883 p.o. bile (p.o., time 240): 9638
PK of MI-883: MI-883 p.o. bile (p.o., time 480): 9739
PK of MI-883: MI-883 p.o. bile (p.o., time 720): 23456
PK of MI-883: MI-883 p.o. bile (p.o., time 1440): 192
PK of MI-883: MI-883 p.o. brain (p.o., time 10): 8
PK of MI-883: MI-883 p.o. brain (p.o., time 120): 300
PK of MI-883: MI-883 p.o. brain (p.o., time 240): 45
PK of MI-883: MI-883 p.o. brain (p.o., time 720): 55
PK of MI-883: MI-883 p.o. colon (p.o., time 10): 2929
PK of MI-883: MI-883 p.o. colon (p.o., time 120): 4345
PK of MI-883: MI-883 p.o. colon (p.o., time 240): 1191
PK of MI-883: MI-883 p.o. colon (p.o., time 480): 1428
PK of MI-883: MI-883 p.o. colon (p.o., time 720): 1386
PK of MI-883: MI-883 p.o. colon (p.o., time 1440): 15
PK of MI-883: MI-883 p.o. feces (p.o., feces, time 1440): 174 ng
PK of MI-883: MI-883 p.o. kidney (p.o., time 10): 573
PK of MI-883: MI-883 p.o. kidney (p.o., time 120): 9000
PK of MI-883: MI-883 p.o. kidney (p.o., time 240): 2409
PK of MI-883: MI-883 p.o. kidney (p.o., time 480): 2347
PK of MI-883: MI-883 p.o. kidney (p.o., time 720): 2408
PK of MI-883: MI-883 p.o. kidney (p.o., time 1440): 40
PK of MI-883: MI-883 p.o. liver (p.o., time 10): 1972
PK of MI-883: MI-883 p.o. liver (p.o., time 120): 14919
PK of MI-883: MI-883 p.o. liver (p.o., time 240): 5297
PK of MI-883: MI-883 p.o. liver (p.o., time 480): 5137
PK of MI-883: MI-883 p.o. liver (p.o., time 720): 5549
PK of MI-883: MI-883 p.o. liver (p.o., time 1440): 102
PK of MI-883: MI-883 p.o. muscule (p.o., time 10): 98
PK of MI-883: MI-883 p.o. muscule (p.o., time 120): 2725
PK of MI-883: MI-883 p.o. muscule (p.o., time 240): 421
PK of MI-883: MI-883 p.o. muscule (p.o., time 480): 488
PK of MI-883: MI-883 p.o. muscule (p.o., time 720): 543
PK of MI-883: MI-883 p.o. small int. (p.o., time 10): 5277
PK of MI-883: MI-883 p.o. small int. (p.o., time 120): 9143
PK of MI-883: MI-883 p.o. small int. (p.o., time 240): 2579
PK of MI-883: MI-883 p.o. small int. (p.o., time 480): 1398
PK of MI-883: MI-883 p.o. small int. (p.o., time 720): 2156
PK of MI-883: MI-883 p.o. small int. (p.o., time 1440): 21
PK of MI-883: MI-883 p.o. (p.o., time 10): 440
PK of MI-883: MI-883 p.o. (p.o., time 120): 9288
PK of MI-883: MI-883 p.o. (p.o., time 240): 1645
PK of MI-883: MI-883 p.o. (p.o., time 480): 1502
PK of MI-883: MI-883 p.o. (p.o., time 720): 1788
PK of MI-883: MI-883 p.o. (p.o., time 1440): 15
time with liver concentration above 1000 ng/g (single dose of 10 mg/kg): more than 18 hours
concentration in the liver lysate (single dose of 10 mg/kg p.o., male C57BL/6N mice): greater than 1000 ng/g
